From paper PMC7899551, “Phase 1 study of Z-endoxifen in patients with advanced gynecologic, desmoid, and hormone receptor-positive solid tumors” (Oncotarget, 2021)
Entries after “also recorded” stand apart in the source; their conditions may differ.

Assays:
[1] = Urinary excretion of Z-endoxifen over a 24-hour collection; assay type: in vivo, human
Procedure: A 3-mL blood sample was collected in a K2 EDTA tube on day 1 of cycle 1 before drug administration and at the following times post-first dose: 0.5, 1, 2, 3, 4, 6, 8, and 24 hours. Samples were collected at the same time points on day 28 of cycle 1 for DL1-6 until a protocol amendment eliminated the requirement for these samples at the higher dose levels. Samples were wrapped in aluminum foil after collection to protect from light exposure. A 10-mL aliquot of urine was collected before agent administration on cycle 1 day 1, for 24 hours after dosing on day 1, and before drug administration on cycle 2 day 1; samples were refrigerated prior to analysis.
Plasma and urine concentrations of Z- and E-endoxifen were measured using a validated, post-column fluorescence derivatization HPLC assay. Non-compartmental pharmacokinetic parameters were calculated using WinNonlin version 7.0 (Pharsight Corp., Mountainview, CA, USA). A 2 μM Cmax target was established for day 28 plasma concentration. The amount of Z-endoxifen excreted in urine was measured over a 24-hour collection period.

[2] = test system: gynecologic tumors, desmoid tumors, hormone receptor-positive solid tumors; assay: Clinical outcome (RECIST 1.1 response, cycles on study); assay type: in vivo, human; details: for prolonged disease stabilization: desmoid
Procedure: This study enrolled patients ≥ 18 years of age with gynecological tumors, desmoid tumors, histologically-documented HR+ (ER+/PR+, ER+/PR-, or ER-/PR+) breast cancer, or other solid tumors that were ER+ or PR+ by immunohistochemistry (any positive expression). […] All other patients must have progressed on at least one line of standard-of-care therapy.
Eye examinations were performed at baseline, every six months while on study, and if clinically indicated. CT scans were performed at baseline, and tumor response was assessed every 2 cycles (8 weeks; every 16 weeks for patients on study for more than 12 months) based on the Response Evaluation Criteria in Solid Tumors (RECIST) version 1.1 [39]. A confirmatory scan was performed after at least 4 weeks to confirm objective response.

[3] = test system: ER+ metastatic breast cancer; design: method as in PMID 28854070; details: cited from earlier work
[4] = patient 7, fallopian tube cancer

## CC/C(=C(\c1ccc(O)cc1)c1ccc(OCCNC)cc1)c1ccccc1 [Z-endoxifen]
[1]
  amount excreted in the urine: < 0.26 % of dose
[2]; 3 ER+/PR- breast cancer patients
  mean number of cycles completed: 3.0 ± 2.6 cycles
[2]; 6 ER+/PR+ breast cancer patients
  mean number of cycles completed: 6.7 ± 4.4 cycles
[2]; 20 evaluable patients with gynecologic tumors (patients 20, 30, 31)
  disease stabilizations of ≥ 6 cycles: 3 patients
[2]; 34 evaluable patients
  partial responses: Three patients had partial responses; also recorded: Three patients in this study experienced partial responses
  patients with stable disease ≥ 6 cycles: 8 patients
  treatment cycles on study, average: 7.2 cycles
  treatment cycles on study, median: 4 cycles
  treatment cycles on study, range: 1–62 cycles
[2]; Breast cancer (n = 9)
  Clinical Benefit (partial response or stable disease for at least 6 cycles): 4 patients
[2]; DL1 to DL5, 20 to 140 mg daily, 3/16 patients
  CBR (partial response or stable disease ≥ 6 cycles): 18.8%
[2]; DL6 to DL8, 200 to 360 mg daily, 8/18 patients
  CBR (partial response or stable disease ≥ 6 cycles): 44.4%
[2]; Desmoid (n = 4)
  Clinical Benefit (partial response or stable disease for at least 6 cycles): 3 patients
[2]; ER+ breast cancer
  mean cycles completed on study: 5.1 ± 4.4 cycles
[2]; ER+ ovarian cancer, 4 patients
  mean cycles on study: 4.0 ± 4.0 cycles
[2]; Fallopian tube cancer (n = 2)
  Clinical Benefit (partial response or stable disease for at least 6 cycles): 1 patients
[2]; Granulosa cell ovarian (n = 2)
  Clinical Benefit (partial response or stable disease for at least 6 cycles): 0 patients
[2]; Ovarian cancer (n = 9)
  Clinical Benefit (partial response or stable disease for at least 6 cycles): 2 patients
[2]; Total of Supplementary Table 1 (endometrial patient 31 not included)
  Clinical Benefit (partial response or stable disease for at least 6 cycles): 10 patients
[2]; all dose levels
  overall CBR (partial response or stable disease ≥ 6 cycles): 32.5%
[2]; hormone receptor-positive breast cancer, 4/9 patients
  CBR: 44%
[2]; [4]
  clinical response: partial response
  cycles on study: 14 cycles
[2]; patient 23, desmoid fibromatosis, prior progression on tamoxifen
  clinical response: partial response
[2]; patient 28 (DL7)
  prolonged disease stabilization: 11 cycles
[2]; patient 31, endometrial cancer
  stable disease duration: 7 cycles
[2]; patient 33 (DL8), breast cancer
  clinical response: partial response
[2]; patient 35 (DL8), prior progression on tamoxifen
  prolonged disease stabilization: 24 cycles
[2]; patients 3, 10, and 21 (DL1, DL3, DL6), breast cancer
  stable disease duration: ≥ 6 cycles
[2]; patients with desmoid tumors, 3/4 patients
  CBR: 75%
[2]; patients with gynecologic malignancies, 4/20 patients
  CBR: 20%
[2]; undetermined ER status ovarian cancer, n = 5
  mean cycles on study: 2.0 ± 1.2 cycles
[3]; 160 mg dose, 38 patients with ER+ metastatic breast cancer
  Plasma concentration on day 1: 333 ng/mL
[3]; previous trial, highest dose 160 mg/day
  overall CBR: 26.3%
